Legend:
[1] = test system: WT 3MX-binding aptamer (RNA, aptamer) GGCGAUACCAGCCGAAAGGCCAUUGGAAGCGUC; test: ITC; conditions: 100 mM NaCl, 10 mM MgCl2; 100 mM HEPES, 0.1 mM EDTA, pH 7.5, 25 °C
[2] = test system: P27 (3MX-binding aptamer) (RNA, aptamer, 2-aminopurine at 27) GGCGAUACCAGCCGAAAGGCCAUUGGAAGCGUC; test: steady-state 2-aminopurine fluorescence titration; conditions: 100 mM NaCl, 10 mM MgCl2; 100 mM HEPES, 0.1 mM EDTA, pH 7.5, 25 °C; 100 nM RNA
[3] = test system: P10 (3MX-binding aptamer) (RNA, aptamer, 2-aminopurine at 10 (replaces A10)) GGCGAUACCAGCCGAAAGGCCAUUGGAAGCGUC; test: ITC; conditions: 100 mM NaCl, 10 mM MgCl2; 100 mM HEPES, 0.1 mM EDTA, pH 7.5, 25 °C
[4] = test system: WT theophylline-binding aptamer (RNA, aptamer) GGCGAUACCAGCCGAAAGGCCCUUGGCAGCGUC; test: ITC; conditions: 100 mM NaCl, 10 mM MgCl2; 100 mM HEPES, 0.1 mM EDTA, pH 7.5, 25 °C
[5] = test system: P10Z11 (theophylline-binding aptamer) (RNA, aptamer, 2-aminopurine at 10 (replaces A10); 7-deazaguanine at 11) GGCGAUACCAGCCGAAAGGCCCUUGGCAGCGUC; test: ITC; conditions: 100 mM NaCl, 10 mM MgCl2; 100 mM HEPES, 0.1 mM EDTA, pH 7.5, 25 °C
[6] = test system: P10 (theophylline-binding aptamer) (RNA, aptamer, 2-aminopurine at 10 (replaces A10)) GGCGAUACCAGCCGAAAGGCCCUUGGCAGCGUC; test: ITC; conditions: 100 mM NaCl, 10 mM MgCl2; 100 mM HEPES, 0.1 mM EDTA, pH 7.5, 25 °C

Row | Kd [1] [µM] | Kd [2] [µM] | Kd [3] [µM] | Kd [4] [µM] | Kd [5] [µM] | Kd [6] [µM] | Structure (SMILES)
1 | 2.7 ± 2.0 | 3.6 ± 0.3 | 24 ± 5 | 1.6 ± 0.5 | – | – | Cn1c(=O)[nH]c(=O)c2[nH]cnc21
2 | – | – | – | 0.86 ± 0.12 | 9.4 ± 0.7 | 9.4 ± 0.8 | Cn1c(=O)c2[nH]cnc2n(C)c1=O

From PMC2857344 (2010)
